Test results as given in patent US20110319398A1 (priority 2010, published 2011).

What was measured:
V. cholerae [1] = conditions: mouse, in vivo; cited from earlier work
V. cholerae [2] = conditions: cited from earlier work
Yptb WT IP2666 = type: cell-based, Y. pseudotuberculosis; conditions: 60 μM compound, 26 C, 7 hrs
HEp-2 cells = test: LDH release assay; type: cell-based; conditions: 60 μM compound, absence of Yptb
Protocol: Compounds were resuspended in RPMI supplemented with 5% FBS to a final concentration of 60 μM. Media was replaced with a volume of 100 μL and cells were incubated at 37 C and 5% CO2. A 50 μL sample was taken from the wells at 2 hrs and 24 hrs for quantification of LDH. LDH in supernatants was quantified using the Promega Cytotox 96 Non-Radioactive Cytotoxicity Assay Kit. Control samples for lysis in the absence of compounds were incubated for 45 minutes in Lysis Buffer (supplied in the kit) then collected at the same time points. The OD at 492 nm was measured spectrophotometrically on a SpectraMax 5 plate reader (Molecular Devices, Sunnyvale, Calif.).
The remaining 12 compounds were evaluated for toxicity to either Yptb or HEp-2 cells. […] The 9 non-antibacterial compounds were assessed for their ability to cause damage to epithelial cells by monitoring the release of lactate dehydrogenase (LDH), a cytoplasmic enzyme whose presence in cell supernatants indicates membrane damage. HEp-2 cells were incubated with 60 μM of each compound, in the absence of Yptb. Tissue culture supernatants were collected after 2 or 24 hours and assessed for LDH levels. […] In contrast, C35 had above baseline LDH release levels at 2 hours and this effect was exacerbated at 24 hours (FIG. 3B). […] Because of the high-level of toxicity caused by C35 at both time points, it was excluded from further characterization. In all subsequent experiments with the remaining 8 compounds, HEp-2 cells were exposed to compounds for 2 hours or less.

[3] = tested on: YscF polymer (TTSS needle); parameters: species or system Y. pseudotuberculosis; conditions: 60 μM compound, 1 mM BS3, Western blot with α-YscF
[4] = tested on: YopE leaked into culture supernatants; type: cell-based, Y. pseudotuberculosis; conditions: 60 μM compound, HEp-2 cells infected with WT Yptb, compared to DMSO
[5] = tested on: ExoS translocation from P. aeruginosa Pa388 into HEp-2 cells; type: cell-based
[6] = tested on: YopE translocation into HEp-2 cells; type: cell-based, Y. pseudotuberculosis; conditions: 60 μM compound; HEp-2 cells infected with Yptb, 45 minutes
[7] = tested on: YopE translocation into the cytosol of HEp-2 cells; type: cell-based, Y. pseudotuberculosis; conditions: 60 μM compound, compared to DMSO control
YscF = type: cell-based, Y. pseudotuberculosis; conditions: 60 μM compound, 5 mM CaCl2, 37 C, 1.5 hours
[8] = tested on: adherence of Yptb to HEp-2 cells; type: cell-based, Y. pseudotuberculosis
[9] = tested on: YadA-mediated autoagglutination; type: cell-based, Y. pseudotuberculosis; conditions: 60 μM C20, 3 hrs at 37 C
[10] = tested on: Sheep red blood cells infected with Yptb; type: cell-based
Yop secretion = type: cell-based, Y. pseudotuberculosis; conditions: 60 μM compound, secretion media (absence of calcium), 37 C

SMILES	Effect on bacterial growth (OD600) (Yptb WT IP2666)	LDH release at 24 hours (HEp-2 cells)	YscF cross-linking pattern (dimer crosslink) [3]	YopE/Yop leakage into culture supernatants [4]	ExoS-dependent cell rounding [5]	also measured
O=C(O)CCCN1C(=O)c2cccc3cccc(c23)C1=O [Virstatin]	–	–	–	–	–	Bacterial burden on mice infected with V. cholerae (V. cholerae [1]): reduces the bacterial burden; Effects on bacterial growth (V. cholerae [2]): without deleterious effects on bacterial growth
O=C1NC2=C(C(=O)c3ccccc32)C(c2ccccc2)S1 (centres unmarked) [Compound C15, 4-phenyl-1,4-dihydroindeno[1,2-d][1,3]thiazine-2,5-dione]	no effect on bacterial growth	did not cause further membrane damage	weaker dimer crosslink	significant leakage	little or no effect	LDH release at 2 hours (HEp-2 cells; 2 hours): elevated LDH release
CCOc1ccc(NC(=O)c2cnccn2)cc1 [Compound C7, N-(4-ethoxyphenyl)pyrazine-2-carboxamide]	no effect on bacterial growth	–	–	significant leakage	little or no effect	Inhibition of YopE-mediated cell rounding [6]: cell-rounding defect was weak; YopE translocation into HEp-2 cells [7]: did not inhibit translocation of YopE
Cc1ccc(C2=N/C(=C/Nc3ccc4c(c3)OCCO4)C(=O)O2)cc1 [Compound C38, (4E)-4-[(2,3-dihydro-1,4-benzodioxin-6-ylamino)methylene]-2-(p-tolyl)oxazol-5-one]	no effect on bacterial growth	–	–	elevated levels of Yop leakage	reduced cell-rounding	Surface YscF staining (YscF): reduced
Cc1nn(-c2ccccc2)c(C)c1/N=C/c1c(O)ccc2ccccc12 [Compound C20, 1-[(E)-(3,5-dimethyl-1-phenyl-pyrazol-4-yl)iminomethyl]naphthalen-2-ol]	no effect on bacterial growth	slightly elevated LDH release	weaker dimer crosslink	elevated levels of Yop leakage	reduced cell-rounding	Binding of Invasin-deleted (Δinv) Yptb to HEp-2 cells [8]: did not block the ability of C20 to further inhibit binding; Binding of Yptb to HEp-2 cells, of the levels of the DMSO-treated control ([8]; 60 μM compound, WT Yptb, ELISA): 15-20%; Autoagglutination activity of Yptb [9]: unaffected; Hemolysis (leakage of hemoglobin) of SRBCs infected with Yptb [10]: slightly reduced leakage of hemoglobin
O=C(c1coc2nc3ccccc3nc12)N1CCN(c2ccccc2)CC1 [Compound C19, furo[3,2-b]quinoxalin-3-yl-(4-phenylpiperazin-1-yl)methanone]	no effect on bacterial growth	–	–	significant leakage	little or no effect	–
c1ccc2c(-c3csc(-c4ccncc4)n3)c[nH]c2c1 [Compound C24, 4-(1H-indol-3-yl)-2-(4-pyridyl)thiazole]	no effect on bacterial growth	slightly elevated LDH release	–	significant leakage	reduced cell-rounding	Surface YscF staining (YscF): reduced
Cc1ccc(NC(=O)Nc2cc3c(cc2N2CCCC2)n(C)c(=O)n3C)cc1C [Compound C34, 1-(1,3-dimethyl-2-oxo-6-pyrrolidin-1-yl-benzimidazol-5-yl)-3-(3,4-dimethylphenyl)urea]	no effect on bacterial growth	–	consistently weaker	elevated levels of Yop leakage	reduced cell-rounding	Inhibition of YopE-mediated cell rounding [6]: potent inhibitor of cell-rounding; Ability to secrete Yops (Yop secretion): secreted less, but detectable levels of Yops; YopE translocation into HEp-2 cells [7]: did not inhibit translocation of YopE
